Measured values reported in US11149271B2, “Method and pharmaceutical composition for treating cancer” (Macau University of Science and Technology, priority 2018, dated 2021).

B1: tRNA^His(GUG): tRNA isolated from Taxus chinensis (Pilger) Rehd. var. mairei, 78 mer (nucleic acid)
chain: GCGGACGUAGCCAAGUGGUCCAAAGGCAGUGGAUUGUGAAUCCACCACGCGCGGGUUCAAUCCCCGUCGUUCGCCCCA
modifications: expressed or natural sequence
notes: tRNA isolated from Taxus chinensis (Pilger) Rehd. var. mairei, 78 mer
B2: tRNA^Leu(CAA): tRNA isolated from Taxus chinensis (Pilger) Rehd. var. mairei, 84 mer (nucleic acid)
chain: GCCUUGAUGGUGAAAUGGUAGACACGCGAGACUCAAAAUCUCGUGCUAAACAGCGUGGAGGUUCGAAUCCUCUUCAAGGCACCA
modifications: expressed or natural sequence
notes: tRNA isolated from Taxus chinensis (Pilger) Rehd. var. mairei, 84 mer
B3: tRNA^Trp(CCA): tRNA isolated from Taxus chinensis (Pilger) Rehd. var. mairei, 75 mer (nucleic acid)
chain: GCGCUCUUAGUUCAGUGCGGUAGAACGCAGGUCUCCAAAACCUGAUGCCGUAGGUUCAAAUCCUACAGAGCGCCA
modifications: expressed or natural sequence
notes: tRNA isolated from Taxus chinensis (Pilger) Rehd. var. mairei, 75 mer
B4: tRNA^Arg(ACG): tRNA isolated from Taxus chinensis (Pilger) Rehd. var. mairei, 77 mer (nucleic acid)
chain: GGGCCUGUAGCUCAGAGGAUUAGAGCACGUGGUUGCGAACCACGGUGUCGGGGGUUCGAAUCCCUCCUCGCCCACCA
modifications: expressed or natural sequence
notes: tRNA isolated from Taxus chinensis (Pilger) Rehd. var. mairei, 77 mer
B5: tRNA^Glu(UUC): tRNA isolated from Taxus chinensis (Pilger) Rehd. var. mairei, 76 mer (nucleic acid)
chain: GCCCCUAUCGUCUAGUGGCCCAGGACAUCUCUCUUUCAAGGAGGCAACGGGGAUUCGAUUUCCCCUAGGGGUACCA
modifications: expressed or natural sequence
notes: tRNA isolated from Taxus chinensis (Pilger) Rehd. var. mairei, 76 mer

How the values were obtained:
[1] = system: Taxol-resistant A549T cells; test: MTT cytotoxicity assay on Taxol-resistant A549 cells; assay type: cell-based, human
Protocol: (§1) A2780, Taxol-resistant A2780, HCT-8, Taxol-resistant HCT-8 and Taxol-resistant A549 cell lines were cultured in RPMI Medium 1640 medium containing 10% FBS and 1% penicillin/streptomycin. HepG2 and MCF-7 cell lines were cultured in Minimum Essential medium containing 10% FBS and 1% penicillin/streptomycin. All cell lines above were cultured at humidified atmosphere containing 5% CO2 at 37° C.
(§2) In the cytotoxicity assay, exponentially growing cells of each cancer cell line were plated in 96-well microplate at a density of 5000 cells per well in 100 μL of culture medium and allowed to adhere for 24 h before treatment. Serial concentrations of RNA molecules obtained in Example 1 and 2 in a mixture containing a gene delivery carrier, i.e. Lipofectamine™ RNAiMAX Transfection Reagent (Thermo Fisher Scientific, U.S.A.) were then added to the cells. After treated for 48 h, MTT solution (50 μL per well, 1 mg/mL solution) was added to each well and incubated for 4 h at 37° C. Subsequently, 200 μL dimethyl sulfoxide (DMSO) were added and the optical densities of the resulting solutions were calorimetrically determined at 570 nm using a SpectraMax 190 microplate reader (Molecular Devices, Sunnyvale, Calif., U.S.A). Dose-response curves were obtained, and the IC50 values were calculated by GraphPad Prism 5 (GraphPad, La Jolla, Calif., USA). […] IC50 results were expressed as means±standard deviation.

[2] = system: A2780 cells tumor xenografts; test: In vivo antitumor effect, A2780 xenograft in nude mice; design: species or system BALB/c nude mice; settings: 2.4 mg/kg with 1% atelocollagen, tumor-adjacent injection once a week; for inhibition of tumor growth (ratio of tumor volume): 28 days (FIG. 7A); for body weight (ratio of weight changes): 28 days (FIG. 7B)
Protocol: Animal model having xenograft cancer was set. Female BALB/c nude mice (6-8-week old) were purchased from Shanghai SLAC Laboratory Animal Co., Ltd. and maintained at 25° C. with free access to food and water in a special pathogen-free laboratory of the animal environment facilities. The animal experiments were performed in compliance with institutional animal care guidelines and according to committee-approved protocol. To generate tumor xenografts, A2780 cells (4.0×10^6) were injected subcutaneously in 100 μL of 1640 medium through a 27-gauge needle into the armpit of 8-week-old BALB/c nude mice. After 4-5 weeks after tumors had reached 60-70 mm^3, the tumor-bearing nude mice were treated with synthesized tRF with atelocollagen (Koken Co., Ltd., Tokyo, Japan). The concentration of atelocollagen was 1%, and tumor-adjacent injection was performed by one dose of HC11 or HC30 (RNA molecule of SEQ ID NO: 1 or SEQ ID NO: 9) (GenePharma Co., Ltd., Shanghai, China) at concentration of 2.4 mg/kg with atelocollagen once a week. A control group was set up in which vehicle was administered to the mice. A Taxol group for administering 1 mg/kg Taxol to the mice was also set as a comparison. The entire treatment lasted for 28 days.
Tumor diameters were measured at maximum length and maximum width with digital calipers. And the tumor volume was calculated by the formula: volume=(width)^2×length/2. The data were statistically analyzed using GraphPad Prism 5 (GraphPad, La Jolla, Calif., USA). […] In other words, the RNA molecules of the present invention are effective in treating cancer cells both in vivo and in vitro.

A2780 cells = test: MTT cytotoxicity assay on A2780 cells; assay type: cell-based, human; settings: for IC50 / inhibition of growth and proliferation (cell viability): 48 h; for IC50: MTT; for inhibition of growth and proliferation (cell viability): 25 nM tRNA, RNAiMAX transfection, A2780 ovarian cancer cells (FIG. 3)
Protocol: as §1
(§3) In the cytotoxicity assay, exponentially growing cells of each cancer cell line were plated in 96-well microplate at a density of 5000 cells per well in 100 μL of culture medium and allowed to adhere for 24 h before treatment. Serial concentrations of RNA molecules obtained in Example 1 and 2 in a mixture containing a gene delivery carrier, i.e. Lipofectamine™ RNAiMAX Transfection Reagent (Thermo Fisher Scientific, U.S.A.) were then added to the cells. After treated for 48 h, MTT solution (50 μL per well, 1 mg/mL solution) was added to each well and incubated for 4 h at 37° C. Subsequently, 200 μL dimethyl sulfoxide (DMSO) were added and the optical densities of the resulting solutions were calorimetrically determined at 570 nm using a SpectraMax 190 microplate reader (Molecular Devices, Sunnyvale, Calif., U.S.A). Dose-response curves were obtained, and the IC50 values were calculated by GraphPad Prism 5 (GraphPad, La Jolla, Calif., USA). Each experiment was carried out for three times. IC50 results were expressed as means±standard deviation.

[3] = system: Taxol-resistant A2780T cells; test: MTT cytotoxicity assay on Taxol-resistant A2780 cells; assay type: cell-based, human
Protocol: as §1, §2

[4] = system: Taxol-resistant HCT-8 cells (HCT-8T); test: MTT cytotoxicity assay on Taxol-resistant HCT-8 cells; assay type: cell-based; settings: 50 nM, 22 bp (FIG. 5F)
Protocol: as §1, §3

HCT-8 cells = test: MTT cytotoxicity assay on HCT-8 cells; assay type: cell-based; settings: for dose dependence of growth and proliferation inhibition: 6.25-100 nM (FIG. 6G, 6H); for IC50: 48 h, MTT
Protocol: as §1, §3

MCF-7 cells = test: MTT cytotoxicity assay on MCF-7 cells; assay type: cell-based, human; settings: 25 nM tRNA, 48 h, RNAiMAX transfection, MCF-7 breast cancer cells (FIG. 3)
Protocol: as §1, §3

HepG2 cells = test: MTT cytotoxicity assay on HepG2 cells; assay type: cell-based, human; settings: 25 nM tRNA, 48 h, RNAiMAX transfection, HepG2 liver cancer cells (FIG. 3)
Protocol: as §1, §3

| Molecule | cytotoxic effect (cell viability) [4] | inhibition of growth and proliferation (cell viability) (MCF-7 cells) | inhibition of growth and proliferation (cell viability) (A2780 cells) | inhibition of growth and proliferation (cell viability) (HepG2 cells) | further results |
| --- | --- | --- | --- | --- | --- |
| HC11: double-stranded RNA, sense SEQ ID NO: 1, antisense SEQ ID NO: 101, 22 bp, 5′-t of tRNA^His(GUG) (sense GCGGACGUAGCCAAGUGGUCCA; antisense UGGACCACUUGGCUACGUCCGC; RNA, backbone and methylation of C not given here; synthetic double-stranded RNA) | – | – | – | – | dose dependence of growth and proliferation inhibition ([1]; A549T cells, 6.25-200 nM (FIG. 6E)): dose-dependent effect; IC50 ([1]; Taxol-resistant A549T cells, 48 h, MTT): 87.3 nM; inhibition of tumor growth (ratio of tumor volume) [2]: effective in inhibiting the growth of the tumor; body weight (ratio of weight changes) [2]: maintaining a relative constant body weight; dose dependence of growth and proliferation inhibition (A2780 cells; A2780 cells, 6.25-100 nM (FIG. 6A)): dose-dependent effect; IC50 (A2780 cells; A2780 cells): 31 nM; dose dependence of growth and proliferation inhibition ([3]; A2780T cells, 6.25-200 nM (FIG. 6C)): dose-dependent effect; IC50 ([3]; Taxol-resistant A2780T cells, 48 h, MTT): 32.3 nM |
| HC18: double-stranded RNA, sense SEQ ID NO: 13, antisense SEQ ID NO: 113, 22 bp, 5′-t of tRNA^Leu(CAA) (sense GCCUUGAUGGUGAAAUGGUAGA; antisense UCUACCAUUUCACCAUCAAGGC; RNA, backbone and methylation of C not given here; synthetic double-stranded RNA) | useful in treating cancer which is resistant against Taxol | – | – | – | – |
| HC30: double-stranded RNA, sense SEQ ID NO: 9, antisense SEQ ID NO: 109, 22 bp, 5′-t of tRNA^Trp(CCA) (sense GCGCUCUUAGUUCAGUGCGGUA; antisense UACCGCACUGAACUAAGAGCGC; RNA, backbone and methylation of C not given here; synthetic double-stranded RNA) | – | – | – | – | inhibition of tumor growth (ratio of tumor volume) [2]: effective in inhibiting the growth of the tumor; body weight (ratio of weight changes) [2]: maintaining a relative constant body weight |
| HC34: double-stranded RNA, sense SEQ ID NO: 25, antisense SEQ ID NO: 125, 22 bp, 5′-t of tRNA^Cys(GCA) (sense GGCGACAUAGCCAAGUGGUAAG; antisense CUUACCACUUGGCUAUGUCGCC; RNA, backbone and methylation of C not given here; synthetic double-stranded RNA) | useful in treating cancer which is resistant against Taxol | – | – | – | – |
| HC36: double-stranded RNA, sense SEQ ID NO: 29, antisense SEQ ID NO: 129, 22 bp, 5′-t of tRNA^Asn(GUU) (sense CCUCAGUAGCUCAGUGGUAGAG; antisense CUCUACCACUGAGCUACUGAGG; RNA, backbone and methylation of C not given here; synthetic double-stranded RNA) | useful in treating cancer which is resistant against Taxol | – | – | – | dose dependence of growth and proliferation inhibition (HCT-8 cells): dose-dependent effect; IC50 (HCT-8 cells): 8.2 nM |
| HC37: double-stranded RNA, sense SEQ ID NO: 31, antisense SEQ ID NO: 131, 22 bp, 3′-t of tRNA^Asn(GUU) (sense GGUUCAAAUCCUAUUUGAGGAG; antisense CUCCUCAAAUAGGAUUUGAACC; RNA, backbone and methylation of C not given here; synthetic double-stranded RNA) | useful in treating cancer which is resistant against Taxol | – | – | – | dose dependence of growth and proliferation inhibition (HCT-8 cells): dose-dependent effect; IC50 (HCT-8 cells): 9.3 nM |
| HC39: double-stranded RNA, sense SEQ ID NO: 35, antisense SEQ ID NO: 135, 22 bp, 3′-t of tRNA^Met(CAU) (sense GGUUCAAAUCCCGUCUCCGCAA; antisense UUGCGGAGACGGGAUUUGAACC; RNA, backbone and methylation of C not given here; synthetic double-stranded RNA) | useful in treating cancer which is resistant against Taxol | – | – | – | – |
| B1 | – | capable of inhibiting the growth and proliferation | capable of inhibiting the growth and proliferation | capable of inhibiting the growth and proliferation | – |
| B2 | – | capable of inhibiting the growth and proliferation | capable of inhibiting the growth and proliferation | capable of inhibiting the growth and proliferation | – |
| B3 | – | capable of inhibiting the growth and proliferation | capable of inhibiting the growth and proliferation | capable of inhibiting the growth and proliferation | IC50 (A2780 cells; A2780 cells): ~14.3 nM |
| B4 | – | capable of inhibiting the growth and proliferation | capable of inhibiting the growth and proliferation | capable of inhibiting the growth and proliferation | – |
| B5 | – | capable of inhibiting the growth and proliferation | capable of inhibiting the growth and proliferation | capable of inhibiting the growth and proliferation | – |
